# Reference: patent US8501786B2, “Hydroxymethyl pyrrolidines as beta 3 adrenergic receptor agonists” (Merck Sharp & Dohme Corp., priority 2009, dated 2013)
# Counter-ions that a name gives are not always drawn.
# Target: T1, human β3 adrenergic receptor (Homo sapiens, UniProt P13945)
# T1 construct: stably transfected with the cloned β-adrenergic receptor (β1, β2 or β3); expressed in transfected cells; host or cells: Chinese hamster ovary (CHO) cells, stably transfected
# Assay: Functional assay: cAMP production (LANCE TR-FRET) in CHO cells stably transfected with cloned β3 adrenergic receptor
# Format: cell-based
# Settings: Table 2; cAMP production, CHO cells expressing human β3 AR; read-out: Human β3 functional
# T1 sequence (P13945 whole entry): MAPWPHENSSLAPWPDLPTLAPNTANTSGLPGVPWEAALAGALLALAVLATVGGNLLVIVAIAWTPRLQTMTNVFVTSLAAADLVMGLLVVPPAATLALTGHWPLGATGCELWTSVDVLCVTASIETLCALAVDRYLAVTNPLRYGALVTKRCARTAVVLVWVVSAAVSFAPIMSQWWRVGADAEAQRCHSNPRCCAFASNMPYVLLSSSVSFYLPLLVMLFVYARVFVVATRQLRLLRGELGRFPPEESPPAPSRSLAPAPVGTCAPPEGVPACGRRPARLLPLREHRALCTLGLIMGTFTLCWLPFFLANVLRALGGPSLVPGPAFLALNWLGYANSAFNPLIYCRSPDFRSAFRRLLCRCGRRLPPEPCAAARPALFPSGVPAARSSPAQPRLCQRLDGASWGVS
row,Compound,EC50 [nM]
1,COc1cccc(N2CCC[C@H]2C(=O)Nc2ccc(CC3CC[C@H]([C@H](O)c4cccnc4)N3)cc2)c1 (stereo partly shown) [Example 31],1 to 10
2,O=C(Nc1ccc(CC2CC[C@H]([C@H](O)c3cccnc3)N2)cc1)c1ccccc1CCc1ccccc1 (stereo partly shown) [Example 32],11 to 100
3,O=C(Nc1ccc(CC2CC[C@H]([C@H](O)c3cccnc3)N2)cc1)c1ccccc1-c1ncc[nH]1 (stereo partly shown) [Example 33],11 to 100
4,O=C(Nc1ccc(CC2CC[C@H]([C@H](O)c3cccnc3)N2)cc1)c1ccccc1-c1nc2ccccc2s1 (stereo partly shown) [Example 34],11 to 100
5,O=C(Nc1ccc(CC2CC[C@H]([C@H](O)c3cccnc3)N2)cc1)c1ccccc1-n1nccn1 (stereo partly shown) [Example 35],11 to 100
6,O=C(Nc1ccc(CC2CC[C@H]([C@H](O)c3cccnc3)N2)cc1)c1ccccc1C1CCCCC1 (stereo partly shown) [Example 36],101 to 1000
7,O=C(Nc1ccc(CC2CC[C@H]([C@H](O)c3cccnc3)N2)cc1)c1ccccc1N1CCCC1 (stereo partly shown) [Example 37],101 to 1000
8,O=C(Cn1cncn1)Nc1ccc(CC2CC[C@H]([C@H](O)c3cccnc3)N2)cc1 (stereo partly shown) [Example 38],11 to 100
9,O=C(Cn1nccn1)Nc1ccc(CC2CC[C@H]([C@H](O)c3cccnc3)N2)cc1 (stereo partly shown) [Example 39],11 to 100
10,O=C(Cn1ccccc1=O)Nc1ccc(CC2CC[C@H]([C@H](O)c3cccnc3)N2)cc1 (stereo partly shown) [Example 40],1 to 10
11,O=C(Cc1cnccn1)Nc1ccc(CC2CC[C@H]([C@H](O)c3cccnc3)N2)cc1 (stereo partly shown) [Example 41],11 to 100
12,O=C(CN1CCCCC1=O)Nc1ccc(CC2CC[C@H]([C@H](O)c3cccnc3)N2)cc1 (stereo partly shown) [Example 42],11 to 100
13,O=C(CN1C(=O)CCC1=O)Nc1ccc(CC2CC[C@H]([C@H](O)c3cccnc3)N2)cc1 (stereo partly shown) [Example 43],11 to 100
14,O=C(CN1CCOC1=O)Nc1ccc(CC2CC[C@H]([C@H](O)c3cccnc3)N2)cc1 (stereo partly shown) [Example 44],11 to 100
15,O=C(CN1CCSC1=O)Nc1ccc(CC2CC[C@H]([C@H](O)c3cccnc3)N2)cc1 (stereo partly shown) [Example 45],1 to 10
16,Cc1cn(CC(=O)Nc2ccc(CC3CC[C@H]([C@H](O)c4cccnc4)N3)cc2)nn1 (stereo partly shown) [Example 46],11 to 100
17,O=C(Cc1cncnc1O)Nc1ccc(CC2CC[C@H]([C@H](O)c3cccnc3)N2)cc1 (stereo partly shown) [Example 47],11 to 100
18,COc1ncncc1CC(=O)Nc1ccc(CC2CC[C@H]([C@H](O)c3cccnc3)N2)cc1 (stereo partly shown) [Example 48],11 to 100
19,Nc1ncncc1CC(=O)Nc1ccc(CC2CC[C@H]([C@H](O)c3cccnc3)N2)cc1 (stereo partly shown) [Example 49],11 to 100
20,CNc1ncncc1CC(=O)Nc1ccc(CC2CC[C@H]([C@H](O)c3cccnc3)N2)cc1 (stereo partly shown) [Example 50],101 to 1000

row,Compound,EC50 [nM]
1,COc1cc2ncn(CC(=O)Nc3ccc(CC4CC[C@H]([C@H](O)c5cccnc5)N4)cc3)c(=O)c2cc1OC (stereo partly shown) [Example 51],1 to 10
2,O=C(Cn1ncccc1=O)Nc1ccc(CC2CC[C@H]([C@H](O)c3cccnc3)N2)cc1 (stereo partly shown) [Example 52],1 to 10
3,O=C(Cn1cnccc1=O)Nc1ccc(CC2CC[C@H]([C@H](O)c3cccnc3)N2)cc1 (stereo partly shown) [Example 53],1 to 10
4,O=C(Nc1ccc(CC2CC[C@H]([C@H](O)c3cccnc3)N2)cc1)c1c[nH]c2cccnc12 (stereo partly shown) [Example 54],101 to 1000
5,O=C(Cc1nnn[nH]1)Nc1ccc(CC2CC[C@H]([C@H](O)c3cccnc3)N2)cc1 (stereo partly shown) [Example 55],11 to 100
6,NC(=O)c1nn(CC(=O)Nc2ccc(CC3CC[C@H]([C@H](O)c4cccnc4)N3)cc2)c(=O)c2ccccc12 (stereo partly shown) [Example 56],1 to 10
7,O=C(Cn1c(=O)[nH]c(=O)c2ccccc21)Nc1ccc(CC2CC[C@H]([C@H](O)c3cccnc3)N2)cc1 (stereo partly shown) [Example 57],1 to 10
8,O=C(Cn1c(=O)cnc2ccccc21)Nc1ccc(CC2CC[C@H]([C@H](O)c3cccnc3)N2)cc1 (stereo partly shown) [Example 58],1 to 10
9,Cc1cccc2c(=O)n(CC(=O)Nc3ccc(CC4CC[C@H]([C@H](O)c5cccnc5)N4)cc3)cnc12 (stereo partly shown) [Example 59],1 to 10
10,O=C(Cn1cccnc1=O)Nc1ccc(CC2CC[C@H]([C@H](O)c3cccnc3)N2)cc1 (stereo partly shown) [Example 60],1 to 10
11,O=C(Cn1ccc(=O)[nH]c1=O)Nc1ccc(CC2CC[C@H]([C@H](O)c3cccnc3)N2)cc1 (stereo partly shown) [Example 61],1 to 10
12,Cc1cn(CC(=O)Nc2ccc(CC3CC[C@H]([C@H](O)c4cccnc4)N3)cc2)c(=O)[nH]c1=O (stereo partly shown) [Example 62],11 to 100
13,O=C(Cn1ccncc1=O)Nc1ccc(CC2CC[C@H]([C@H](O)c3cccnc3)N2)cc1 (stereo partly shown) [Example 63],11 to 100
14,O=C(Cn1c(=O)[nH]c2ccccc2c1=O)Nc1ccc(CC2CC[C@H]([C@H](O)c3cccnc3)N2)cc1 (stereo partly shown) [Example 65],1 to 10
15,O=C(Cn1nc(Cl)ccc1=O)Nc1ccc(CC2CC[C@H]([C@H](O)c3cccnc3)N2)cc1 (stereo partly shown) [Example 66],11 to 100
16,O=C(Cn1[nH]c(=O)c2ccccc2c1=O)Nc1ccc(CC2CC[C@H]([C@H](O)c3cccnc3)N2)cc1 (stereo partly shown) [Example 67],11 to 100
17,Cc1nonc1CC(=O)Nc1ccc(CC2CC[C@H]([C@H](O)c3cccnc3)N2)cc1 (stereo partly shown) [Example 68],11 to 100
18,CC1=NN(CC(=O)Nc2ccc(CC3CC[C@H]([C@H](O)c4cccnc4)N3)cc2)C(=O)C1C (stereo partly shown) [Example 69],11 to 100
19,CC1=NN(CC(=O)Nc2ccc(CC3CC[C@H]([C@H](O)c4cccnc4)N3)cc2)C(=O)C1 (stereo partly shown) [Example 70],11 to 100
20,O=C(CC1NC(=O)NC1=O)Nc1ccc(CC2CC[C@H]([C@H](O)c3cccnc3)N2)cc1 (stereo partly shown) [Example 71],101 to 1000

row,Compound,EC50 [nM]
1,O=C(CC1NC(=S)N(c2ccccc2)C1=O)Nc1ccc(CC2CC[C@H]([C@H](O)c3cccnc3)N2)cc1 (stereo partly shown) [Example 72],11 to 100
2,O=C(Cc1n[nH]c(=O)[nH]1)Nc1ccc(CC2CC[C@H]([C@H](O)c3cccnc3)N2)cc1 (stereo partly shown) [Example 73],11 to 100
3,O=C(Cc1csc(=S)[nH]1)Nc1ccc(CC2CC[C@H]([C@H](O)c3cccnc3)N2)cc1 (stereo partly shown) [Example 74],11 to 100
4,O=C(Cn1cnc2ccsc2c1=O)Nc1ccc(CC2CC[C@H]([C@H](O)c3cccnc3)N2)cc1 (stereo partly shown) [Example 75],1 to 10
5,Cn1ncc2ncn(CC(=O)Nc3ccc(CC4CC[C@H]([C@H](O)c5cccnc5)N4)cc3)c(=O)c21 (stereo partly shown) [Example 76],1 to 10
6,O=C(Cc1ccccc1F)Nc1ccc(CC2CC[C@H]([C@H](O)c3cccnc3)N2)cc1 (stereo partly shown) [Example 77],11 to 100
7,O=C(Cc1c(F)cccc1F)Nc1ccc(CC2CC[C@H]([C@H](O)c3cccnc3)N2)cc1 (stereo partly shown) [Example 78],1 to 10
8,O=C(Cc1cccc(F)c1F)Nc1ccc(CC2CC[C@H]([C@H](O)c3cccnc3)N2)cc1 (stereo partly shown) [Example 79],11 to 100
9,Cc1nc(CC(=O)Nc2ccc(CC3CC[C@H]([C@H](O)c4cccnc4)N3)cc2)no1 (stereo partly shown) [Example 80],11 to 100
10,O=C(Cc1csc(-c2ccccn2)n1)Nc1ccc(CC2CC[C@H]([C@H](O)c3cccnc3)N2)cc1 (stereo partly shown) [Example 81],11 to 100
11,O=C(Cc1csc(-c2cccnc2)n1)Nc1ccc(CC2CC[C@H]([C@H](O)c3cccnc3)N2)cc1 (stereo partly shown) [Example 82],1 to 10
12,COC(=O)CCC(=O)Nc1ccc(CC2CC[C@H]([C@H](O)c3cccnc3)N2)cc1 (stereo partly shown) [Example 83],101 to 1000
13,O=C(O)CCC(=O)Nc1ccc(CC2CC[C@H]([C@H](O)c3cccnc3)N2)cc1 (stereo partly shown) [Example 84],101 to 1000
14,O=C(CN1CCCOC1=O)Nc1ccc(CC2CC[C@H]([C@H](O)c3cccnc3)N2)cc1 (stereo partly shown) [Example 85],11 to 100
15,CN1CCN(CC(=O)Nc2ccc(CC3CC[C@H]([C@H](O)c4cccnc4)N3)cc2)C1=O (stereo partly shown) [Example 86],101 to 1000
16,CN1CCCN(CC(=O)Nc2ccc(CC3CC[C@H]([C@H](O)c4cccnc4)N3)cc2)C1=O (stereo partly shown) [Example 87],101 to 1000
17,Cc1nn(C)c(O)c1CC(=O)Nc1ccc(CC2CC[C@H]([C@H](O)c3cccnc3)N2)cc1 (stereo partly shown) [Example 88],101 to 1000
18,NC(=O)c1ccn(CC(=O)Nc2ccc(CC3CC[C@H]([C@H](O)c4cccnc4)N3)cc2)n1 (stereo partly shown) [Example 89],11 to 100
19,NC(=O)c1cnn(CC(=O)Nc2ccc(CC3CC[C@H]([C@H](O)c4cccnc4)N3)cc2)c1 (stereo partly shown) [Example 90],11 to 100

# Same assay, conditions: Table 3; cAMP production, CHO cells expressing human β3 AR; read-out: Human β3 functional
row,Compound,EC50 [nM]
1,O=C(Nc1ccc(CC2CC[C@H]([C@H](O)c3cccnc3)N2)cc1)[C@@H]1CCc2nnnn21 (stereo partly shown) [Example 172],1 to 10
2,O=C(Nc1ccc(CC2CC[C@H]([C@H](O)c3cccnc3)N2)cc1)[C@H]1CCc2nnnn21 (stereo partly shown) [Example 173],1 to 10

# Same assay, conditions: Table 4; cAMP production, CHO cells expressing human β3 AR; read-out: Human β3 functional
row,Compound,EC50 [nM]
1,O=S(=O)(Nc1ccc(CC2CC[C@H]([C@H](O)c3cccnc3)N2)cc1)c1ccc(-c2nc(-c3ccc(C(F)(F)F)cc3)cs2)cc1 (stereo partly shown) [Example 223],1 to 10
2,O=S(=O)(Nc1ccc(CC2CC[C@H]([C@H](O)c3cccnc3)N2)cc1)c1ccc(I)cc1 (stereo partly shown) [Example 224],11 to 100
3,O=S(=O)(Nc1ccc(CC2CC[C@H]([C@H](O)c3cccnc3)N2)cc1)c1ccc2ccccc2c1 (stereo partly shown) [Example 225],11 to 100
4,O=S(=O)(Cc1ccccn1)Nc1ccc(CC2CC[C@H]([C@H](O)c3cccnc3)N2)cc1 (stereo partly shown) [Example 226],101 to 1000
5,O=S(=O)(Nc1ccc(CC2CC[C@H]([C@H](O)c3cccnc3)N2)cc1)c1ccc(-n2cccn2)cc1 (stereo partly shown) [Example 227],11 to 100
6,O=S(=O)(Nc1ccc(CC2CC[C@H]([C@H](O)c3cccnc3)N2)cc1)c1ccc2cnccc2c1 (stereo partly shown) [Example 228],101 to 1000
7,O=S(=O)(Nc1ccc(CC2CC[C@H]([C@H](O)c3cccnc3)N2)cc1)c1cccc2cccnc12 (stereo partly shown) [Example 229],101 to 1000
8,O=S(=O)(Nc1ccc(CC2CC[C@H]([C@H](O)c3cccnc3)N2)cc1)c1cccc2cnccc12 (stereo partly shown) [Example 230],101 to 1000

# Same assay, conditions: cAMP production, CHO cells expressing human β3 AR; read-out: human Beta-3 agonist functional activity
row,Compound,EC50 [nM]
1,"O=S(=O)(Nc1ccc(C[C@@H]2CC[C@H]([C@H](O)c3cccnc3)N2)cc1)c1ccc(-c2nc(-c3ccc(C(F)(F)F)cc3)cs2)cc1 [Example 222, N-[4-({(2S,5R)-5-[(R)-hydroxy(pyridin-3-yl)methyl]pyrrolidin-2-yl}methyl)phenyl]-4-{4-[4-(trifluoromethyl)phenyl]-1,3-thiazol-2-yl}benzenesulfonamide, trifluoroacetic acid salt]",< 10
